How the values were obtained:
[1] = molecular target: T1, Tyrosine-protein kinase BTK (Homo sapiens, UniProt Q06187); assay: Inhibition of recombinant full-length His6-tagged BTK (unknown origin) expressed in baculovirus infected Sf9 cells using biotinylated A5 peptide as substrate preincubated for 60 mins followed by substrate addition measured after 120 mins by LANCE TR-FRET assay
[2] = Oral bioavailability in rat at 10 mg/kg; format: ADME, organism-based; details: in vivo
[3] = molecular target: Tyrosine-protein kinase Lyn (Homo sapiens, UniProt P07948); assay: Inhibition of LYNB (unknown origin)
Chain of Tyrosine-protein kinase Lyn (P07948 whole entry): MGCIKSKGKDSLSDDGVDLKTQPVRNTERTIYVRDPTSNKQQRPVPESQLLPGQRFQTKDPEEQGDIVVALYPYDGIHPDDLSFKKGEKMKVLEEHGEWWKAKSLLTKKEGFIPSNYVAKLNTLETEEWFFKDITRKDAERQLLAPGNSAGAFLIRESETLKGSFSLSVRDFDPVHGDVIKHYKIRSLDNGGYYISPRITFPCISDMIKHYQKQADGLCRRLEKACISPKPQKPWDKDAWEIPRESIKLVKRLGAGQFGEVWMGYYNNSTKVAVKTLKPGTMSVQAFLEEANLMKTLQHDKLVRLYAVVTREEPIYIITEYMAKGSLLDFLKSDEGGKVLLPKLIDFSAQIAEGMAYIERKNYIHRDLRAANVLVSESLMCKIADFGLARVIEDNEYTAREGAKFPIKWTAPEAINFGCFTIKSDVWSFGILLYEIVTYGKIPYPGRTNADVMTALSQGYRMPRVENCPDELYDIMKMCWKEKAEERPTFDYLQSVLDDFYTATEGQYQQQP

[4] = molecular target: T1, Tyrosine-protein kinase BTK; assay: Inhibition of BTK in human PBMC assessed as reduction in anti-IgM-induced MIP1beta
[5] = molecular target: Receptor tyrosine-protein kinase erbB-4 (Homo sapiens, UniProt Q15303); assay: Inhibition of ERBB4 (unknown origin)
Chain of Receptor tyrosine-protein kinase erbB-4 (Q15303 whole entry): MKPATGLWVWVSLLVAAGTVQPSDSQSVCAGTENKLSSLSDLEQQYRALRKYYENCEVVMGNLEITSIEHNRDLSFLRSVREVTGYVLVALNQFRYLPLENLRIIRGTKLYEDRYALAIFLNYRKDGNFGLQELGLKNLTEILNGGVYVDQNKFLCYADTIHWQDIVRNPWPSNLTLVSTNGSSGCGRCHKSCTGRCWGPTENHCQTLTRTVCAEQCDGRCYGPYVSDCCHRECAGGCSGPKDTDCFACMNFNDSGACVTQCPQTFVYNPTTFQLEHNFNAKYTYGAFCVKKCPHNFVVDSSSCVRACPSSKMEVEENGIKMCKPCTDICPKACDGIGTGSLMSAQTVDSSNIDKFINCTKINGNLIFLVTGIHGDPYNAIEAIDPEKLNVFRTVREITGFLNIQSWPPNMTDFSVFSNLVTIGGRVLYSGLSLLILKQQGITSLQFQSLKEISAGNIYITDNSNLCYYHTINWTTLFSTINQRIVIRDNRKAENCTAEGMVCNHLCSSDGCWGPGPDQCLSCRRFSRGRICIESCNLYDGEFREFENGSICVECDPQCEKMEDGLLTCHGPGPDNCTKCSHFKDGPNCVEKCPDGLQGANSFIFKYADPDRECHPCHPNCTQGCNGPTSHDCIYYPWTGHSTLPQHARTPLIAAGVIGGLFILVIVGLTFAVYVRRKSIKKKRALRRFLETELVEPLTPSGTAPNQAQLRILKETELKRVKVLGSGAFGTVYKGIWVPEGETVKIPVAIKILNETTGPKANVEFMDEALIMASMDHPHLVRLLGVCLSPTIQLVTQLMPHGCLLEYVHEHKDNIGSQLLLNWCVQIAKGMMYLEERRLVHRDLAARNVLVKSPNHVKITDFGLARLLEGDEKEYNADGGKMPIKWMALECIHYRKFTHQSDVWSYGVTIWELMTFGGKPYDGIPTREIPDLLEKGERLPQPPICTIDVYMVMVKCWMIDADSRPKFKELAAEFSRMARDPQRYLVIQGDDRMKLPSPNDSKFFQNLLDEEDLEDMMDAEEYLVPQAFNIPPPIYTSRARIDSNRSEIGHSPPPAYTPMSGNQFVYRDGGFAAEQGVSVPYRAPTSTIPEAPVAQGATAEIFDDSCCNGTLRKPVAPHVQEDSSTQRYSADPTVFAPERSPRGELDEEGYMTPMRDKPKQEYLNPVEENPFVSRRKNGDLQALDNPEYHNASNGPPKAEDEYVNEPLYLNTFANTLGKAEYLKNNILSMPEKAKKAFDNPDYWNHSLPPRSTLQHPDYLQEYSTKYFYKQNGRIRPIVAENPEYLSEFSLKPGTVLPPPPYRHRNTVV

[6] = molecular target: Tyrosine-protein kinase Yes (Homo sapiens, UniProt P07947); assay: Inhibition of YES1 (unknown origin)
[7] = molecular target: Tyrosine-protein kinase Fyn (Homo sapiens, UniProt P06241); assay: Inhibition of FYN (unknown origin)
[8] = molecular target: T2, Tyrosine-protein kinase Tec (Homo sapiens, UniProt P42680); assay: Inhibition of TEC (unknown origin)
T2 sequence (P42680 whole entry): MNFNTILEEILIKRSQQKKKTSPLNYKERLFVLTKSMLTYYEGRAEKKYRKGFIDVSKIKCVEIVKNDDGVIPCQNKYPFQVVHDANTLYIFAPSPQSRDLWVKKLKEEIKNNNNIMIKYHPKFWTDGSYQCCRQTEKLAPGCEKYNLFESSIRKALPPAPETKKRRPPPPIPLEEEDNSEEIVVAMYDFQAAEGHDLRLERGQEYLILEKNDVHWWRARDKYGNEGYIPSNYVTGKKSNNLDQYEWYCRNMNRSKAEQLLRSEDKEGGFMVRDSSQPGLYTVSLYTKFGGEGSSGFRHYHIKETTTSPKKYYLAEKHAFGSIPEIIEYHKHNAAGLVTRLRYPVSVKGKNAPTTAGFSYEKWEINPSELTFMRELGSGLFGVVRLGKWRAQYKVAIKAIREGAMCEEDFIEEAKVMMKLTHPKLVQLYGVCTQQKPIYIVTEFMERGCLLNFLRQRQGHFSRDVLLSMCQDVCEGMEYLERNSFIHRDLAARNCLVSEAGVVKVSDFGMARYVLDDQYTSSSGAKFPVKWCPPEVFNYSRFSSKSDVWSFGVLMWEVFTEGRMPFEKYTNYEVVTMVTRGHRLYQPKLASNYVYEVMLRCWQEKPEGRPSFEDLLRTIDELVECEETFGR

[9] = molecular target: Protein-tyrosine kinase 6 (Homo sapiens, UniProt Q13882); assay: Inhibition of PTK6 (unknown origin)
Chain of Protein-tyrosine kinase 6 (Q13882 whole entry): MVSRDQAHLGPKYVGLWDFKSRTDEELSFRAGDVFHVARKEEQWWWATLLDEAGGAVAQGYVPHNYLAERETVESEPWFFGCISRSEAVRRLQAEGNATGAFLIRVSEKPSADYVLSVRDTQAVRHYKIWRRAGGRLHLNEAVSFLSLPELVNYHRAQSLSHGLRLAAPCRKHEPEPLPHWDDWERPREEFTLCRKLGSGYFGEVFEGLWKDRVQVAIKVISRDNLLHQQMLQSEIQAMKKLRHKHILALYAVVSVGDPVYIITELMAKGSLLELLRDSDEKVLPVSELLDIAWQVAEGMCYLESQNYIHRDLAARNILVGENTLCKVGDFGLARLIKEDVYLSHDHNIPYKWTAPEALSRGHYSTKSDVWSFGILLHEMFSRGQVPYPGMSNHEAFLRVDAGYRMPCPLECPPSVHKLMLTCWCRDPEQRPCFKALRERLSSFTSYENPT

[10] = molecular target: Tyrosine-protein kinase Lck (Homo sapiens, UniProt P06239); assay: Inhibition of LCK (unknown origin)
[11] = molecular target: T3, Tyrosine-protein kinase TXK (Homo sapiens, UniProt P42681); assay: Inhibition of TXK (unknown origin)
T3 sequence (P42681 whole entry): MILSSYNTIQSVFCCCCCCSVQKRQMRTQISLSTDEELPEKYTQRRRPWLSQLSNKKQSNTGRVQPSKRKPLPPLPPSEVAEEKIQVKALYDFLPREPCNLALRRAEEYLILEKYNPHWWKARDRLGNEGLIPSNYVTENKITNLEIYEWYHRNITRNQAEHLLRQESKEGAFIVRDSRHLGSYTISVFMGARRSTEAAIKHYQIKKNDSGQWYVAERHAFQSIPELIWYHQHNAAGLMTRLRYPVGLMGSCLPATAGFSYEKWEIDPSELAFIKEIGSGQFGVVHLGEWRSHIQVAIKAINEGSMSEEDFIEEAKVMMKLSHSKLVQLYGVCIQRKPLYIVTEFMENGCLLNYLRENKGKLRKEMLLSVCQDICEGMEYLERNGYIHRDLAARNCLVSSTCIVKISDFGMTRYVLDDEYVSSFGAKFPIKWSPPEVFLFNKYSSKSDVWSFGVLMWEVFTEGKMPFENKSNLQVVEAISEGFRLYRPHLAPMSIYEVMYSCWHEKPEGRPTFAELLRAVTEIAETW

[12] = molecular target: T4, Cytoplasmic tyrosine-protein kinase BMX (Homo sapiens, UniProt P51813); assay: Inhibition of BMX (unknown origin)
T4 sequence (P51813 whole entry): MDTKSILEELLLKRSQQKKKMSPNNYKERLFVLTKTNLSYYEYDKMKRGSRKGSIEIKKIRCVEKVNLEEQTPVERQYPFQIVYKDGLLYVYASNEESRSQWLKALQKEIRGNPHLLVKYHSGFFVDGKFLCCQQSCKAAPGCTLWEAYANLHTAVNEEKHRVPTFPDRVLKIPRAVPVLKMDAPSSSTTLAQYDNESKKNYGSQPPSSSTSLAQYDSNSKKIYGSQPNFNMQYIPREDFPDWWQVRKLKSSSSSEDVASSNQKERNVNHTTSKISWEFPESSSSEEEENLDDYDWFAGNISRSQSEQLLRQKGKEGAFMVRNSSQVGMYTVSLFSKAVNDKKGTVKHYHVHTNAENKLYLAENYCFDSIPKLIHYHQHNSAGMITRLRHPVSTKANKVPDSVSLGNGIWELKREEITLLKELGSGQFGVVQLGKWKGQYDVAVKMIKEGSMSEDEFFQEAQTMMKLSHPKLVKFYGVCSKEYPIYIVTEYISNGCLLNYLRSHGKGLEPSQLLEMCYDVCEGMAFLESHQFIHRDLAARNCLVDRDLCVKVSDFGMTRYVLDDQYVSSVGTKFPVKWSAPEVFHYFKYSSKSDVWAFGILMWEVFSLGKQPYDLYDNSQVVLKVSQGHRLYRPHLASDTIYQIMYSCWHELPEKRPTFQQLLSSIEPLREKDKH

[13] = Half life in dog at 2 mg/kg administered as cassette dose; format: ADME, organism-based, Canis lupus familiaris; details: in vivo
[14] = Half life in rat at 10 mg/kg; format: ADME, organism-based; details: in vivo
[15] = molecular target: Tyrosine-protein kinase Srms (Homo sapiens, UniProt Q9H3Y6); assay: Inhibition of SRMS (unknown origin)
[16] = molecular target: Tyrosine-protein kinase Blk (Homo sapiens, UniProt P51451); assay: Inhibition of BLK (unknown origin)
[17] = molecular target: Tyrosine-protein kinase FRK (Homo sapiens, UniProt P42685); assay: Inhibition of FRK (unknown origin)
Chain of Tyrosine-protein kinase FRK (P42685 whole entry): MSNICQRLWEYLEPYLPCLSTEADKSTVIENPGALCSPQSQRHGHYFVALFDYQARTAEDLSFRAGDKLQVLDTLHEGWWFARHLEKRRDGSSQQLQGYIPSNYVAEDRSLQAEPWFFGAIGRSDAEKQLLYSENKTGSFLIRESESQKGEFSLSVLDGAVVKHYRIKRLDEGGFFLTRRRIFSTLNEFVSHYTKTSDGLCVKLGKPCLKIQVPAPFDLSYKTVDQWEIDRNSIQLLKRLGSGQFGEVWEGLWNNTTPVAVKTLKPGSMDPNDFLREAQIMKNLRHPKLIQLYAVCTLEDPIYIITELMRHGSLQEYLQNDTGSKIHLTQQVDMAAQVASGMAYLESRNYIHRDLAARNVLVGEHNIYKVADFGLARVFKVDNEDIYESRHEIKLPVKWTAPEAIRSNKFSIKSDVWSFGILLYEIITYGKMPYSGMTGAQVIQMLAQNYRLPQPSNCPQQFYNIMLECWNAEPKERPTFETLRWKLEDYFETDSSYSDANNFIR

[18] = Total clearance in dog plasma at 2 mg/kg administered as cassette dose; format: ADME, organism-based, Canis lupus familiaris
[19] = molecular target: Proto-oncogene tyrosine-protein kinase Src (Homo sapiens, UniProt P12931); assay: Inhibition of SRC (unknown origin)
[20] = molecular target: Tyrosine-protein kinase CSK (Homo sapiens, UniProt P41240); assay: Inhibition of CSK (unknown origin)
Chain of Tyrosine-protein kinase CSK (P41240 whole entry): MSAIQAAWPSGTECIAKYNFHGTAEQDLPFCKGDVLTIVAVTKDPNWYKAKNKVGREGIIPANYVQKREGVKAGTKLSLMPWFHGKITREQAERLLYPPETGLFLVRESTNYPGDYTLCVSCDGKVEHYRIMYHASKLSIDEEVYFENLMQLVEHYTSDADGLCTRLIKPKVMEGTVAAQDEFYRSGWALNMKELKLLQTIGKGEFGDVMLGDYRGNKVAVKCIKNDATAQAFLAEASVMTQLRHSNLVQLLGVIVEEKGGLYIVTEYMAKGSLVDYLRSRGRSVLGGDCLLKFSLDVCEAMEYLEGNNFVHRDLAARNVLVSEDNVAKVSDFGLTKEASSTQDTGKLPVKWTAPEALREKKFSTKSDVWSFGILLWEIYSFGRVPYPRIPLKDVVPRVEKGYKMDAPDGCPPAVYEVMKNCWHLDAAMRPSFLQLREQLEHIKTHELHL

[21] = molecular target: Tyrosine-protein kinase Fgr (Homo sapiens, UniProt P09769); assay: Inhibition of FGR (unknown origin)
[22] = Total clearance in rat plasma at 10 mg/kg; format: ADME, organism-based
[23] = molecular target: Voltage-gated inwardly rectifying potassium channel KCNH2 (Homo sapiens, UniProt Q12809); assay: Inhibition of human ERG by [35S]-MK499 displacement or iKr channel assay
Chain of Voltage-gated inwardly rectifying potassium channel KCNH2 (Q12809 whole entry): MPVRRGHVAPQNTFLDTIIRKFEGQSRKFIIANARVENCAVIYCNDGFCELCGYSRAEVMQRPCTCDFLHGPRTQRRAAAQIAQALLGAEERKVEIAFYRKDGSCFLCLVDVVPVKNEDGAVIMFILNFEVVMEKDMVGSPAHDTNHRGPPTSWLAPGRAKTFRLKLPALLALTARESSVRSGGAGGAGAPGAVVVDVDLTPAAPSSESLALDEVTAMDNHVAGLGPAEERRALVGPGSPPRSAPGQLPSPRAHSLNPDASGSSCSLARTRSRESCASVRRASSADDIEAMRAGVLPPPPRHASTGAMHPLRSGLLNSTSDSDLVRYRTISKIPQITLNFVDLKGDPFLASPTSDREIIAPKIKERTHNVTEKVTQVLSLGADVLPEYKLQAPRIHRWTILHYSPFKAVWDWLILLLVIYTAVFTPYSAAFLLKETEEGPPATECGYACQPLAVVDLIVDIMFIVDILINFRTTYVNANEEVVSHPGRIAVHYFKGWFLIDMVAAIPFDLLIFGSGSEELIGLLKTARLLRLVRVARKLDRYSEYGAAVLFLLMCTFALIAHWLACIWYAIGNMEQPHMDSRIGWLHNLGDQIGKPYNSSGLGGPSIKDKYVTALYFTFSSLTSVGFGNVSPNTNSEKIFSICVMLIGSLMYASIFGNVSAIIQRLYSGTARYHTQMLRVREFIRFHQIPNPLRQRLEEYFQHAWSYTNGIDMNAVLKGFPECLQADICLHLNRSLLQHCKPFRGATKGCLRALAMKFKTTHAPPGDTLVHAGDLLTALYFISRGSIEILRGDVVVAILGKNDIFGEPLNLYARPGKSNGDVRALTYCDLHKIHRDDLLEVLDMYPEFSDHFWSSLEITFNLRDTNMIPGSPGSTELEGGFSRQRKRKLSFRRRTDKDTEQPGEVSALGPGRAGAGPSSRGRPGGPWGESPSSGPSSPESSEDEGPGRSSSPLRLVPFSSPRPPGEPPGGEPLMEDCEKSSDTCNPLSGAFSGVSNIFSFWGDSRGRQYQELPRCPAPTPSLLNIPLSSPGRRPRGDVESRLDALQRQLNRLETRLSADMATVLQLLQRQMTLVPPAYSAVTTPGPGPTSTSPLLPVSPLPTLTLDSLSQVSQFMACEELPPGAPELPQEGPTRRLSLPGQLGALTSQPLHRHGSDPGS

T1 sequence (Q06187 whole entry): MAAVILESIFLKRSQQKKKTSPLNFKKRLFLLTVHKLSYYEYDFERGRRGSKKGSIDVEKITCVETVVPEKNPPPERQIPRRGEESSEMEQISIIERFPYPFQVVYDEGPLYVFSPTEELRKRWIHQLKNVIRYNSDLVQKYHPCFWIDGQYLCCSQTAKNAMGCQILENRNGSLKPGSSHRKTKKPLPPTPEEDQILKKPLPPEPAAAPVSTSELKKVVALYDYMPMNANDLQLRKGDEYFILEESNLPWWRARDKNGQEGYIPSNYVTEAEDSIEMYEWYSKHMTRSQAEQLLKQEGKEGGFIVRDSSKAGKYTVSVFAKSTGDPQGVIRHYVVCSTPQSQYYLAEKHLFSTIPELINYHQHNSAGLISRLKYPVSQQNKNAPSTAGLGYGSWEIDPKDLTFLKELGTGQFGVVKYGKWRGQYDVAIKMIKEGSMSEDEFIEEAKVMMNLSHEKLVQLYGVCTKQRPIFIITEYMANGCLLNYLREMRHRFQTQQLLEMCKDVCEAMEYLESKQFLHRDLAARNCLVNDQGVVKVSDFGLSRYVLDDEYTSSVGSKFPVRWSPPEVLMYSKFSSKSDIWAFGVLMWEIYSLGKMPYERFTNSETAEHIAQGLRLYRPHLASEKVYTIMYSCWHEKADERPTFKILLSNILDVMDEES

Work on `Nc1nccn2c([C@H]3CN(C4CCOCC4)CCO3)nc(-c3ccc(C(=O)Nc4cc(C(F)(F)F)ccn4)cc3F)c12` yielded an IC50 [1] of 0.59 to 0.6 nM, a bioavailability [2] of 75% and an IC50 [3] of 399 nM. It also gave an IC50 [4] of 13 nM, an IC50 [5] of 76 nM and an IC50 [6] of 60 nM. It also gave an IC50 [7] of 248 nM, an IC50 [8] of 191 nM and an IC50 [9] of 113 nM. The IC50 [10] was 21 nM, the IC50 [11] was 282 nM and the IC50 [12] was 200 nM. The half-life [13] was 3.1 h, the half-life [14] was 1.1 h and the IC50 [15] was 65 nM. The IC50 [16] was 50 nM, the IC50 [17] was 132 nM and the clearance [18] was 5.9 mL/min/kg. For the same molecule, the IC50 [19] was 112 nM, the IC50 [20] was 665 nM and the IC50 [21] was 39 nM. For the same molecule, the clearance [22] was 23 mL/min/kg.

Work on `CC(=O)N1CCC[C@@H](c2nc(-c3ccc(C(=O)Nc4cc(C(F)(F)F)ccn4)cc3F)c3c(N)nccn23)C1` yielded an IC50 [23] of 2400 nM.

With `COCCC(=O)N1CCSC(c2nc(-c3ccc(C(=O)Nc4cc(C(F)(F)F)ccn4)cc3)c3c(N)nccn23)C1` (configuration not stated) the IC50 [23] was 1800 nM.

Work on `CC1(C(=O)N2CCO[C@@H](c3nc(-c4ccc(C(=O)Nc5cc(C(F)(F)F)ccn5)cc4)c4c(N)nccn34)C2)COC1` yielded an IC50 [23] of 14400 nM.

Molecule `CC1(C(=O)N2CC[C@@H](c3nc(-c4ccc(C(=O)Nc5cc(C(F)(F)F)ccn5)cc4)c4c(N)nccn34)C2)COC1` has an IC50 [23] of 2500 nM.

In the case of `CC1(C(=O)N2CC(c3nc(-c4ccc(C(=O)Nc5cc(C(F)(F)F)ccn5)cc4)c4c(N)nccn34)C2)COC1`, the IC50 [23] is reported as 400 nM.
